Source: ChEMBL document CHEMBL5150064 (J Med Chem, 2022)

Assays:
[1] = Oral bioavailability in NCR nude mouse at 5 mg/kg measured upto 8 hrs by LC-MS/MS analysis; assay type: ADME, organism-based; settings: in vivo
[2] = AUC in NCR nude mouse at 5 mg/kg, po measured upto 8 hrs by LC-MS/MS analysis; assay type: ADME, organism-based; set-up: time < 8 hrs, dose 5 mg/kg, route po; settings: in vivo
[3] = biological target: T1, Phosphatidylinositol 4,5-bisphosphate 3-kinase catalytic subunit delta isoform (Homo sapiens) (UniProt O00329); experiment: Inhibition of PI3Kdelta in human B-cells assessed as reduction in CD69 expression preincubated for 1 hr followed by IgM stimulation for 18 hrs by flow cytometry analysis; assay type: cell-based; settings: B-cell
T1 sequence (whole entry): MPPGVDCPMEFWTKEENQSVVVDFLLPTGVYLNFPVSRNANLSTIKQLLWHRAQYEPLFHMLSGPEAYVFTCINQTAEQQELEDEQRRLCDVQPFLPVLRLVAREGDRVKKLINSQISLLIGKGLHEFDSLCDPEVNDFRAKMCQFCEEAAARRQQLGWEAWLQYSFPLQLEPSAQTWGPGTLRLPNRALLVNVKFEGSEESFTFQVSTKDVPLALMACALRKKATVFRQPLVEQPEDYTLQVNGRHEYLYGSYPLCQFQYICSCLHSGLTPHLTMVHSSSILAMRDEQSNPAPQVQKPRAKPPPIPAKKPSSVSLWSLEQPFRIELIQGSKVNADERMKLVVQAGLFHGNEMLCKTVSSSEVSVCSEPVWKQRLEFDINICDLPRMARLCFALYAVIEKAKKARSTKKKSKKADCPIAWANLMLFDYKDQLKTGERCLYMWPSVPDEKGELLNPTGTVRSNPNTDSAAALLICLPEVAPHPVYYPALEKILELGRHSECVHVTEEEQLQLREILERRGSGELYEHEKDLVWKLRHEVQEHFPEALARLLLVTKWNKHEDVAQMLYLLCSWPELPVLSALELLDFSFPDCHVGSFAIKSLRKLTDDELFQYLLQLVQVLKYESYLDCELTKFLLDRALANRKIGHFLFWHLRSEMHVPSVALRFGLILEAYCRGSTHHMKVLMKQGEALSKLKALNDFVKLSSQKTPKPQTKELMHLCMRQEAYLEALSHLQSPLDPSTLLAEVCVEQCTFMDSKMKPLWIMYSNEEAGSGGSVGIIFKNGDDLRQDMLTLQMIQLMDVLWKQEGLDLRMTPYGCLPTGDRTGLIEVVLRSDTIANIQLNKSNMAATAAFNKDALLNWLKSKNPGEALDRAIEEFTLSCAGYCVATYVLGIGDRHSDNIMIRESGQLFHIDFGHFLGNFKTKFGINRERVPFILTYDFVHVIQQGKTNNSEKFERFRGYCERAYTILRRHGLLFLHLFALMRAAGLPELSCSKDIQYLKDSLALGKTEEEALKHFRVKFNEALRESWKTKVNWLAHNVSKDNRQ

[4] = Lipophilicity, logD of compound in 1-Octanol/PBS at pH 7.4 by LC-MS/MS method; assay type: physicochemical

bioavailability [1]: 45% | AUC at 8 h [2]: 2.5 µM·h | IC90 [3]: 0.276 µM | logD [4]: 0.8
SMILES: C[C@H](Nc1ccc2c(c1)OCCn1cc(N3C(=O)OC[C@H]3C(F)F)nc1-2)C(N)=O [INAVOLISIB]
